Source: patent publication US12642795B2, “MRGPRX2 antagonist for the treatment of pseudo allergic reactions” (The University of Hong Kong, priority 2021, dated 2026)

Columns and labels:
human LAD2 MCs = experiment: Monocyte chemoattractant protein-1 (MCP-1) measurement by ELISA; format: cell-based; settings: 12.5 μM, 25 μM and 50 μM; compared to C48/80 control
Method: MCP-1 and PGD2 were measured from human LAD2 MCs via individual ELISA kits. Briefly, MCs were seeded at a density of 1.5×10^5 cells/80 μL/well in a 96 well plate in complete Stem-Pro 34 media. […] The cells were centrifuged to collect the supernatant and stored at −80° C. until analyzed. […] After 24 hours, cells were centrifuged to discard the media and lysed with 0.1M potassium phosphate via sonication. The supernatant of cell lysate was collected and stored at −80° C. until analyzed. MCP-1 (Abcam, Cambridge, UK) and PGD2 (Cayman Chemicals, MI, USA) were quantified by ELISA according to manufacturer instruction.

mice ear tissue MCs = experiment: Histological analysis of ear tissue (H&E, Toluidine blue; in-vivo MCs degranulation); design: species or system mouse; settings: 5 mg/kg intraperitoneally, vs C48/80 treated group
Method: The mice were anesthetized with ketamine/xylazine and were injected with antagonists (GE0117, GE1109, and GE1111) at a dose of 5 mg/kg body weight intraperitoneally. After 30 minutes, C48/80 (10 μL of 30 μg/ml) and saline (as negative control) were injected into the ear. Fifteen minutes later, the mice were sacrificed, and the injection site of the ear was excised, washed with PBS, and fixed with 10% buffered formalin for 24 h. After 24 hours, the ear tissue was dehydrated in a graded concentration of ethanol (30%, 50% & 70% ethanol every 24 hours) at 4° C. Further, the tissue was processed in an automated tissue processor (Leica ASP300) and embedded into paraffin using Embedding Centre (Leica EG1150). The paraffin-embedded tissue was sectioned at […] size using a fully automatic Microtome (Leica RM2265). The tissue sections were subjected to H&E staining using an automated slide Stainer (Leica ST5020) using standard staining protocol. After staining, the slides were dried under a fume hood and mounted with DPX. For the MCs detection, the sectioned ear tissue was subjected to Toluidine blue O staining according to the available online protocol (http://www.ihcworld.com/_protocols/special_stains/toluidine_blue.htm). Images were captured under 10× and 20× magnification using a Nikon Eclipse Ni-U, upright microscope, and Nikon DS-Ri2 microscopic camera (Nikon, Tokyo, Japan).

Human LAD-2 MCs = experiment: Intracellular Ca2+ flux assay (Fluo-4 NW); format: cell-based; settings: LAD2 MCs; for efficacy in Ca2+ flux reduction at 12.5 μM, 25 μM and 50 μM: ****P<0.0001 vs C48/80; for reduction of C48/80 induced Ca2+ flux: C48/80 EC90 concentration
Method: The intracellular Ca^2+ flux was measured in human LAD-2 MCs by using the Fluo-4 NW calcium assay kit and the protocol according to the manufacturer (Molecular Probe, Invitrogen, USA). Briefly, LAD-2 cells were plated in a 96-well black well plate (SPL Life Sciences) at a density of 1×10^5 cells/well/40 μL in assay buffer and incubated for 1 h at 37° C. incubators. After 1 h, 40 μL of the 2× dye loading solution and antagonist or buffer was added to the cells (10 μL of 10× stock). […] After one hour of incubation, a graded concentration of agonist or buffer was added to the cells (10 μL of 10× stock). The fluorescence was measured at an excitation wavelength of 494 nm and an emission wavelength of 516 nm using Victor 4× plate reader (PerkinElmer) for 150 seconds. The ΔF was calculated by […] and plotted by using Graph Pad Prism.

Row | SMILES | inhibition of C48/80 induced MCP-1 release (human LAD2 MCs) | percentage of degranulated MCs in ear tissue (mice ear tissue MCs) | efficacy in Ca2+ flux reduction at 12.5 μM, 25 μM and 50 μM (Human LAD-2 MCs) | reduction of C48/80 induced Ca2+ flux (Human LAD-2 MCs)
1 | COC(=O)c1cc2cc(NC(N)=O)ccc2cc1-c1ccc2c3c(cccc13)C(=O)C=C2 [GE1109] | significant activity only at 25 μM, and 50 μM | reduces the MCs degranulation | higher efficacy at all three concentrations | significant concentration-dependent reduction
2 | COC(=O)c1cc2cc(NC(N)=O)ccc2cc1-c1cc2c3c(c(O)ccc3c1)C(C)C(C=O)=C2 (centres unmarked) [GE1111] | significantly inhibits the release of MCP-1 at all the tested concentrations | reduces the MCs degranulation | higher efficacy at all three concentrations | significant concentration-dependent reduction
